Several values for one entry are separate records, joined by “and”; a condition that tells them apart may be missing. Equal entries are not always repeated. Where two headings read alike, the source gives them in different places.
What was measured:
SARS2 = assay type: cell-based, SARS-CoV-2; details: for Percentage Inhibition Average 1 μM / Screening data (Relative infection to DMSO controls) Average 1 μM: SARS2, 1 μM; for Screening data (Relative infection to DMSO controls) Average 1 μM / Screening data (Relative infection to DMSO controls) Average 5 μM / Screening data (Relative infection to DMSO controls) Average 10 μM / Screening data (Relative infection to DMSO controls) Average 25 μM / Screening data (Relative infection to DMSO controls) Average 50 μM / Average (relative infection to DMSO over the 5 tested concentrations): 100=DMSO control; for Percentage Inhibition Average 5 μM / Screening data (Relative infection to DMSO controls) Average 5 μM: SARS2, 5 μM; for Percentage Inhibition Average 10 μM / Screening data (Relative infection to DMSO controls) Average 10 μM: SARS2, 10 μM; for Percentage Inhibition Average 25 μM / Screening data (Relative infection to DMSO controls) Average 25 μM: SARS2, 25 μM; for Percentage Inhibition Average 50 μM / Screening data (Relative infection to DMSO controls) Average 50 μM: SARS2, 50 μM; for Average (relative infection to DMSO over the 5 tested concentrations): SARS2, average over 1 to 50 uM; for Percentage Infection Relative to Appropriate DMSO Control with Avg Background Subtraction: Nunc Celigo plates, listed as SICLS39; for Infection Data, Average, Mean: average of Exp 1-2 (SMW491, SMW492)
cells (nuclei count) = details: for Relative cell count to DMSO controls, Average 1 μM / Relative cell count to DMSO controls, Average 5 μM / Relative cell count to DMSO controls, Average 10 μM / Relative cell count to DMSO controls, Average 25 μM / Relative cell count to DMSO controls, Average 50 μM: toxicity data, 100=DMSO control; for Relative cell count to DMSO controls, Average (for correlation analysis): average value over the 5 tested concentrations (1 to 50 uM); for Toxicity Data, Average, Mean percentage relative to DMSO control: Average of Exp 1 (SMW491) and Exp 2 (SMW492)

## CC1=C(C(=O)NCc2ccccc2)C(c2ccc(C)o2)NC(=O)N1 (centres unmarked) [SILCS69]
SARS2
  Percentage Inhibition Average 1 μM: 44.23%
  Screening data (Relative infection to DMSO controls) Average 1 μM: 55.77
  Percentage Inhibition Average 5 μM: 29.45%
  Screening data (Relative infection to DMSO controls) Average 5 μM: 70.55
  Percentage Inhibition Average 10 μM: 24.51%
  Screening data (Relative infection to DMSO controls) Average 10 μM: 75.49
  Percentage Inhibition Average 25 μM: −26.06%
  Screening data (Relative infection to DMSO controls) Average 25 μM: 126.06
  Percentage Inhibition Average 50 μM: −48.18%
  Screening data (Relative infection to DMSO controls) Average 50 μM: 148.18
  Average (relative infection to DMSO over the 5 tested concentrations): 95.21
Cells (nuclei count)
  Relative cell count to DMSO controls, Average 1 μM: 114.56
  Relative cell count to DMSO controls, Average 5 μM: 113.8
  Relative cell count to DMSO controls, Average 10 μM: 108.32
  Relative cell count to DMSO controls, Average 25 μM: 93.65
  Relative cell count to DMSO controls, Average 50 μM: 79.5
  Relative cell count to DMSO controls, Average (for correlation analysis): 101.97

## CCN(CC)CCN(Cc1cc(C)c(Br)s1)Cc1cc(C)c(Br)s1 [SILCS39]
SARS2; Exp 1 (SMW491), 1 uM
  Percentage Infection Relative to Appropriate DMSO Control with Avg Background Subtraction: 94.45% and 94.76%
SARS2; Exp 1 (SMW491), 5 uM
  Percentage Infection Relative to Appropriate DMSO Control with Avg Background Subtraction: 61.21% and 63.14%
SARS2; Exp 1 (SMW491), 10 uM
  Percentage Infection Relative to Appropriate DMSO Control with Avg Background Subtraction: 26.66% and 13.52%
SARS2; Exp 1 (SMW491), 25 uM
  Percentage Infection Relative to Appropriate DMSO Control with Avg Background Subtraction: 1.98% and 2.03%
SARS2; Exp 2 (SMW492), 1 uM
  Percentage Infection Relative to Appropriate DMSO Control with Avg Background Subtraction: 55.17% and 68.37%
SARS2; Exp 2 (SMW492), 5 uM
  Percentage Infection Relative to Appropriate DMSO Control with Avg Background Subtraction: 40.93% and 42.02%
SARS2; Exp 2 (SMW492), 10 uM
  Percentage Infection Relative to Appropriate DMSO Control with Avg Background Subtraction: 21.95% and 19.13%
SARS2; Exp 2 (SMW492), 25 uM
  Percentage Infection Relative to Appropriate DMSO Control with Avg Background Subtraction: 5.42% and 6.99%
SARS2; Exp 2 (SMW492), 50 uM
  Percentage Infection Relative to Appropriate DMSO Control with Avg Background Subtraction: 5.19% and 10.37%
SARS2
  Percentage Inhibition Average 1 μM: 21.81%
  Screening data (Relative infection to DMSO controls) Average 1 μM: 78.19
  Percentage Inhibition Average 5 μM: 48.17%
  Screening data (Relative infection to DMSO controls) Average 5 μM: 51.83
  Percentage Inhibition Average 10 μM: 79.68%
  Screening data (Relative infection to DMSO controls) Average 10 μM: 20.32
  Percentage Inhibition Average 25 μM: 95.89%
  Screening data (Relative infection to DMSO controls) Average 25 μM: 4.11
  Percentage Inhibition Average 50 μM: 93.60%
  Screening data (Relative infection to DMSO controls) Average 50 μM: 6.40
  Average (relative infection to DMSO over the 5 tested concentrations): 32.17
SARS2; n 4, 1 uM
  Infection Data, Average, Mean: 78.19%
SARS2; n 4, 5 uM
  Infection Data, Average, Mean: 51.83%
SARS2; n 4, 10 uM
  Infection Data, Average, Mean: 20.32%
SARS2; n 4, 25 uM
  Infection Data, Average, Mean: 4.11%
SARS2; n 4, 50 uM
  Infection Data, Average, Mean: 6.40%
Cells (nuclei count)
  Relative cell count to DMSO controls, Average 1 μM: 107.69
  Relative cell count to DMSO controls, Average 5 μM: 114.94
  Relative cell count to DMSO controls, Average 10 μM: 149.83
  Relative cell count to DMSO controls, Average 25 μM: 128.15
  Relative cell count to DMSO controls, Average 50 μM: 46.35
  Relative cell count to DMSO controls, Average (for correlation analysis): 109.39
Cells (nuclei count); n=4, 1 uM
  Toxicity Data, Average, Mean percentage relative to DMSO control: 107.69%
Cells (nuclei count); n=4, 5 uM
  Toxicity Data, Average, Mean percentage relative to DMSO control: 114.94%
Cells (nuclei count); n=4, 10 uM
  Toxicity Data, Average, Mean percentage relative to DMSO control: 149.83%
Cells (nuclei count); n=4, 25 uM
  Toxicity Data, Average, Mean percentage relative to DMSO control: 128.15%
Cells (nuclei count); n=4, 50 uM
  Toxicity Data, Average, Mean percentage relative to DMSO control: 46.35%

Source: US20240132484A1, “BROAD SPECTRUM ANTIVIRAL COMPOUNDS TARGETING THE SKI COMPLEX” (priority 2020, published 2024)
